Measurements as given in patent publication US20160015036A1, “Methods and apparatuses related to pre- and post-dip teat treatment in milking facilities” (Aqua Access LLC, priority 2013, published 2016).

Columns and labels:
E. coli = assay: Bacteriocidal activity tests of colloidal disinfectant mix at low/intermediate/high FAC, E. coli; format: cell-based, Escherichia coli; details: 200-300 ppm FAC in viscous post-dip solutions; 30 seconds
Description: (§1) FIG. 4 is an illustration of a test for bacteriocidal activity.
(§2) Colloid-based disinfectant mixing procedures were established as follows. Step 1—Mix 2 g GA into 90 mL of water, leave with constant slow mixing for 1 hour. Step 2—Generate chlorine-based oxidant by salt brine electrolysis. Measure FAC concentration by the Hach DPD technique. Step 3—Dilute free chlorine solution from fresh electrolyzed brine solution. Final FAC concentration to be 200 ppm or 300 ppm. Step 4—Add 1 g of pure lanolin (with no additives), fill up the volume to 100 mL. Mix with slow stirring or on a rotary carousel for another hour. If needed, add Brilliant Blue (food-grade) dye during the last mixing. Ready. Store at ambient temperature for up to 48 hours or 72 hours.
(§3) Also, 400 ppm FAC in the disinfectant colloid mix causes 7-log inactivation of E. coli, and 200 ppm FAC is sufficient for 6-log inactivation of S. aures. Higher FAC concentrations can be useful in pre-dip solutions for teat wash. 200-300 ppm FAC, which holds for a long time upon storage, can be sufficient for post-dip solutions. Note that the tests were performed under controlled laboratory conditions. Field test data might support the data, or might indicate that higher FAC concentrations are necessary.

S. aures = assay: Bacteriocidal activity tests of colloidal disinfectant mix at low/intermediate/high FAC, S. aureus; format: cell-based, Staphylococcus aureus; details: 200-300 ppm FAC in viscous post-dip solutions; 30 seconds
Description: as §1, §2, §3

E. coli cells = details: 100 ppm hypochlorite applied for 1 min.; cited from earlier work

OCl [sodium hypochlorite]
log inactivation of Escherichia coli (E. coli): 6 log | log inactivation of Staphylococcus aureus (S. aures): 6 log | E. coli cells killed (E. coli cells): 10^6 cells
